Assay results published in EP0474374A1, “Method for treatment of bone wasting diseases using a progestin” (ORTHO PHARMACEUTICAL CORPORATION, priority 1990, dated 1992).
“Also recorded” adds a separate entry of the source.

How the values were obtained:
[1] = system: MC3T3-El osteoblast-line cells; test: Osteoblast cell proliferation (3H-thymidine incorporation into DNA); type: cell-based, mouse; settings: for OSTEOBLAST STIMULATION: ability to stimulate 3H-thymidine incorporation in MC3T3-El osteoblast-line cells, stimulation over control; for osteoblast proliferation and differentiation: summary statement in words, bone forming cells, cell line not named
Procedure: Only cells undergoing mitosis will synthesize new DNA and thus only these cells will incorporate the radiolabelled DNA specific nucleotide, thymidine. […] The ability of agents to increase osteoblast proliferation and differentiation can be predicted by their action on cultured osteoblast-line cells in vitro. In this test mouse (MC3T3-El), and human (TE-85) osteoblast-line cells were cultured in vitro and the effect of various progestins was tested on osteoblast cell proliferation. Osteoblast cell proliferation was determined by measuring the rate of DNA synthesis, which was quantified by measuring the rate of ³H-thymidine incorporation into DNA.
Following their placement into 96 well culture plates all the osteoblast-line cells, either the MC3T3-El or the TE-85 cell lines, were allowed an additional 24 hours preincubation period in media containing only 0.1% fetal bovine sera. The next day the test compounds were added and screened at concentrations ranging from 10⁻¹⁴ to 10⁻⁶ M depending on the particular study. Twenty hours later a 20 ul aliquot of media containing 0.4 uCi of ³H-thymidine was added to each culture well. The cells were then incubated for an additional 4 hours. The incubation was terminated by aspirating the media and washing with HBSS (Hank's Balanced Salt Solution). The cells were then treated with 100 ul of Trypsin-EDTA (Ethylene Diamine Tetra Acetic Acid) (0.5% trypsin and 5.3 mM EDTA) for 30 minutes at room temperature. The cells were then aspirated onto a glass fiber filter and washed with water. The radioactivity on the filters was quantified by liquid scintillation spectroscopy. The rate of ³H-thymidine incorporation into DNA is then utilized as an index of cell proliferation.
Mouse (MC3T3-El) osteoblast-line cells were cultured in vitro and the effect of various progestins on the ability of the cells to incorporate 3H-thymidine was determined. Osteoblast cell proliferation is determined by measuring the rate of DNA synthesis which was quantified by measuring the rate of ³H-thymidine incorporation into DNA. MC-3T3-El osteoblast-line cells were harvested from large culture flasks where they were allowed to grow to near confluency using Trypsin.

[2] = system: MC3T3-El osteoblast-line cells; test: Osteoblast cell number by Coulter counting; type: cell-based, mouse; settings: 0.01 to 100 nM, 5 days, no fetal bovine sera; result in words
Procedure: In this study MC3T3-El osteoblast-line cells were cultured into 6 well plates at a density of 50,000 cells/well in 10% fetal bovine sera. The following day media was changed to that containing no fetal bovine sera . The next day some of the cells were harvested by trypsin and counted using a Coulter cell counter. This count was considered as Day 0. […] After 5 days all of the cells were harvested and counted using a Coulter cell counter.
Figure 2. […] Each striped bar represents the mean and the vertical line l S.E.M. of 6 determinations.

[3] = system: TE-85 human osteoblast-line cells; test: Osteoblast cell proliferation (3H-thymidine incorporation into DNA); type: cell-based; settings: TE-85 cells, 0.0001 to 100 nM; result in words
Text: The action of select progestins to stimulate osteoblast proliferation can be measured in culture by estimating the rate of DNA synthesis by the rate of 3H-thymidine incorporation into DNA. Only cells undergoing mitosis will synthesize new DNA and thus only these cells will incorporate the radiolabelled DNA specific nucleotide, thymidine. The stimulation of the proliferation and differentiation of bone-forming cells, osteoblasts, is a prerequisite for an increase in bone formation and bone mass. The ability of agents to increase osteoblast proliferation and differentiation can be predicted by their action on cultured osteoblast-line cells in vitro. […] Osteoblast cell proliferation was determined by measuring the rate of DNA synthesis, which was quantified by measuring the rate of ³H-thymidine incorporation into DNA. […]
MC-3T3-El (cloned by Sudo and Coworkers, Koriyama Japan) and TE85 (American Type Tissue Culture Collection #CRL 1543, Rockville, MD) osteoblast-line cells were harvested from large culture flasks (175 cm²) where they were allowed to grow to near confluency using Trypsin. […] The radioactivity on the filters was quantified by liquid scintillation spectroscopy. […]
Osteoblast growth was determined by me: ring the rate of 3H-thymidine incorporation into DNA as in Example #1. […]

[4] = system: T47D breast carcinoma-line cells; test: Breast carcinoma cell proliferation (3H-thymidine incorporation into DNA); type: cell-based, human; settings: 0.00001 to 100 nM, result in words
Procedure: T47D breast (Human) carcinoma-line cells (American Type Tissue Culture Collection #HTB 133, Rockville, MD) were harvested using Trypsin from large (175 cm²) culture flasks where they were allowed to grow to near confluency. The cells were plated into 96 well culture plates, 1600 cells in 100 ul per well in DMEM with 25 mM Hepes buffer, L-glutamine (584 mg/l); D-glucose (4.5 gm/l) supplemented with 10% fetal bovine sera; penicillin (100 units/ml) and streptomycin (100 mcg/ml); sodium pyruvate (10 uM final concentration). The cells were allowed to plate overnight in DMEM containing 10% fetal bovine sera at 37°C in an atmosphere of 5% CO₂/95% air. Following their placement into 96 well culture plates, the cells were incubated for an additional 24 hour preincubation period in media containing only 0.1% fetal bovine sera. The next day the test compounds were added and screened at concentrations ranging from 10⁻¹⁴ to 10⁻⁶ M depending on the particular study. Twenty hours later a 20 ul aliquot of media containing 0.4 uCi of ³H-thymidine was added to each culture well. The cells were then incubated for an additional 4 hours. […] The radioactivity on the filters was quantified by liquid scintillation spectroscopy. […]
MC3T3-El cells were cultured as described in Example #1. […] The radioactivity on the filters was quantified by liquid scintillation spectroscopy. […]

[5] = system: TE-85 human osteoblast-line cells; test: Alkaline phosphatase secretion into the media (osteoblast differentiation); type: cell-based
Procedure: Osteoblast growth was determined by me: ring the rate of 3H-thymidine incorporation into DNA as in Example #1. Osteoblast differention was estimated by measuring the secretion of skeletal alkaline phosphatase into the media. Skeletal alkaline phosphatase is considered a reliable marker of osteoblast differention and activity. TE-85 human osteoblast-line cells were cultured as described previously in Example #1. […] 3H-Thymidine incorporation into the osteoblast cell DNA and alkaline phosphatase secreted into the media was measured simultaneously (Figure 3 and 4).

SMILES	OSTEOBLAST STIMULATION [1]	osteoblast proliferation and differentiation [1]	further results
C#C[C@]1(OC(C)=O)CC[C@H]2[C@@H]3CCC4=CC(=NO)CC[C@@H]4[C@H]3CC[C@@]21CC (mixture of isomers) [NORGESTIMATE]	NOT ACTIVE	do not stimulate	
C#C[C@]1(O)CC[C@H]2[C@@H]3CCC4=CC(=O)CC[C@@H]4[C@H]3C(=C)C[C@@]21CC [3-KETO-DESOGESTREL]	NOT ACTIVE		
C[C@]12CC[C@H]3[C@@H](CCC4=CC(=O)CC[C@@H]43)[C@@H]1CC[C@@H]2O [19-nortestosterone]		do not stimulate	
C[C@]12CCC(=O)C[C@@H]1CC[C@@H]1[C@@H]2CC[C@]2(C)[C@@H](O)CC[C@@H]12 [DIHYDROTESTOSTERONE, 5-alpha-dihydrotestosterone]	NOT ACTIVE		
C#C[C@]1(O)CC[C@H]2[C@@H]3CCC4=CC(=O)CC[C@@H]4[C@H]3CC[C@@]21CC [LEVONORGESTREL]	NOT ACTIVE		
C#C[C@]1(O)CC[C@H]2[C@@H]3CCC4=CC(=O)CC[C@@H]4[C@H]3CC[C@@]21C [NORETHINDRONE]	ACTIVE	significantly and reproducibly stimulate	osteoblast number [2]: induced an increase in osteoblast number; osteoblast proliferation ([1]; MC3T3-El cells, result in words): does possess osteoblast proliferative action; also recorded: dose-related increase; 3H-thymidine incorporation [3]: increased; proliferation of breast cell line [4]: dose-related increase; secretion of alkaline phosphatase ([5]; TE-85 cells, 0.0001 to 100 nM, result in words): increased; cellular alkaline phosphatase activity in osteoblast-line cells ([5]; summary statement in words, cell line not named): stimulate
CC(=O)[C@H]1CC[C@H]2[C@@H]3CCC4=CC(=O)CC[C@]4(C)[C@H]3CC[C@]12C [PROGESTERONE]	ACTIVE	significantly and reproducibly stimulate	
CC(=O)O[C@]1(C(C)=O)CC[C@H]2[C@@H]3C=C(Cl)C4=CC(=O)CC[C@]4(C)[C@H]3CC[C@@]21C [chlormadionone acetate]		significantly and reproducibly stimulate	
CC(=O)O[C@]1(C(C)=O)CC[C@H]2[C@@H]3C=C(Cl)C4=CC(=O)[C@@H]5C[C@@H]5[C@]4(C)[C@H]3CC[C@@]21C [cyproterone acetate]		do not stimulate	
C#C[C@]1(O)CC[C@H]2[C@@H]3CCC4=CCCC[C@@H]4[C@H]3C(=C)C[C@@]21CC [desogestrel]		do not stimulate	
CC(=O)O[C@]1(C(C)=O)CC[C@H]2[C@@H]3C[C@H](C)C4=CC(=O)CC[C@]4(C)[C@H]3CC[C@@]21C [medroxyprogesterone acetate]		significantly and reproducibly stimulate	
CC(=O)O[C@]1(C(C)=O)CC[C@H]2[C@@H]3C=C(C)C4=CC(=O)CC[C@]4(C)[C@H]3CC[C@@]21C [megestrol acetate]		significantly and reproducibly stimulate	
C#C[C@]1(OC(C)=O)CC[C@H]2[C@@H]3CCC4=CC(=O)CC[C@@H]4[C@H]3CC[C@@]21C [norethindrone acetate]		significantly and reproducibly stimulate	
C#C[C@]1(O)CC[C@H]2[C@@H]3CCC4=C(CCC(=O)C4)[C@H]3CC[C@@]21C [norethynodrel]		significantly and reproducibly stimulate	
